Laboratory results published in patent US4818770A, “Prevention of a plant disease by specific inhibition of fungal polyamine biosynthesis” (priority 1986, dated 1989).
Where “and” joins values, the source holds several entries; their conditions need not be identical. Equal values may be shown once. Entries after “also recorded” stand apart in the source; their conditions may differ. Read-outs that look alike come from different tables or passages of the source.

Key:
Uromyces phaseoli = assay: Bean rust lesions on unifoliolate leaves of Pinto bean sprayed before or after inoculation; assay type: in vivo
[1] = test system: bean plants (Phaseolus vulgaris cv Pinto); assay: Effect of sprays on growth and appearance of bean plants; assay type: in vivo
Protocol: Unifoliolate leaves of 10-day-old bean seedlings were sprayed (400 ul per leaf) with DFMO or alpha-difluoromethylarginine (DFMA) at concentrations of 0.01-5 mM, before or after inoculation with uredospores of the bean rust, Uromyces phaseoli, Race 0. The inhibitor solutions were prepared in 0.01% Tween 20, with the pH adjusted to 7.0. Control plants without inhibitor were sprayed similarly and were allowed to dry before inoculation with the pathogen. After inoculation with rust uredospores (25 mg/100 ml of 0.01% Tween 20) all plants were placed in dew chambers (100% relative humidity) for 16 hours at 19° C. in total darkness. After exposures to inhibitors and uredospores, all plants were returned to the greenhouse and arranged randomly. Disease severity was evaluated 7 days after inoculation by counting foliar lesions. In control plants and those treated with low concentrations of DFMO, uredospores were collected randomly from each treatment to determine percent germination and pathogenicity. For determination of germination, spores were dusted onto Petri plates containing 10 mM 2-(N-morpholino)ethanesulfonic acid (Mes) at pH 7.0, 3 mM CaCl2, 2 mM MgSO4, and 1% purified agar, and incubated for 3 hr at 19° C. in the light.

Verticillium dahliae [2] = assay: Radial mycelial growth of Verticillium dahliae in vitro; assay type: cell-based; details: for minimal effective concentration: Verticillium dahliae, in vitro
Verticillium dahliae [3] = assay: Verticillium wilt symptoms in Bonny Best tomato after foliar spray; assay type: in vivo
[4] = test system: P. recondita f. sp. tritici; assay type: in vivo, Puccinia recondita f. sp. tritici
[5] = test system: Puccinia graminis fsp avenae; assay type: in vivo
Podosphaera leucotricha = assay: Infection of apple by powdery mildew; assay type: in vivo; details: 5 mM
bean rust uredospores = assay: Germination and differentiation of bean rust uredospores in agar; assay type: cell-based, Uromyces phaseoli; details: for inhibition at 100 µM / inhibition at 500 µM / inhibition at 1000 µM / inhibition at 5000 µM: Uromyces phaseoli
Erysiphe polygoni = assay: Infection by bean powdery mildew; assay type: in vivo
[6] = test system: Botrytis sp., B. cinerea, Rhizoctonia solani, Monilinia fructicola; details: Botrytis sp., B. cinerea, Rhizoctonia solani, Monilinia fructicola; cited from earlier work
Erysiphe graminis = assay: Wheat powdery mildew infection, colonies per plant
Protocol: With wheat powdery mildew (E. graminis) 10-day-old seedlings were sprayed with solutions of DFMA or DFMO from 0.01 to 5.0 mM before and after inoculation of the plants with conidia. Inoculation occurred naturally in the greenhouse by distributing infected plants among the experimental plants for 24 hours. Infection was evaluated 10 days after inoculation by counting mildew colonies.

[7] = test system: Colletotrichum lagenarium; assay: Infection of National Pickling cucumber plants by cucumber anthracnose
[8] = postinoculation exposure, inhibitor 0.01 mM
[9] = postinoculation exposure, inhibitor 0.025 mM
[10] = postinoculation exposure, inhibitor 0.05 mM
[11] = postinoculation exposure, inhibitor 0.075 mM
[12] = postinoculation exposure, inhibitor 0.10 mM
[13] = postinoculation exposure, inhibitor 0.25 mM
[14] = postinoculation exposure, inhibitor 0.50 mM
[15] = postinoculation exposure, inhibitor 1.0 mM
[16] = postinoculation exposure, inhibitor 5.0 mM
[17] = preinoculation exposure, inhibitor 0.01 mM
[18] = preinoculation exposure, inhibitor 0.025 mM
[19] = preinoculation exposure, inhibitor 0.05 mM
[20] = preinoculation exposure, inhibitor 0.075 mM
[21] = preinoculation exposure, inhibitor 0.10 mM
[22] = preinoculation exposure, inhibitor 0.25 mM
[23] = preinoculation exposure, inhibitor 0.50 mM
[24] = preinoculation exposure, inhibitor 1.0 mM
[25] = preinoculation exposure, inhibitor 5.0 mM

NCCCC(N)(C(=O)O)C(F)F (racemic) [DFMO, DL-alpha-difluorimethylornithine]
protection against infection (Uromyces phaseoli; 400 ul of 0.25 mM applied to a single leaf): complete protection
disease symptoms / protection against bean rust (Uromyces phaseoli; DFMO at 0.5 mM or higher, pre- and postinoculation, 400 ul per leaf): No disease symptoms could be detected; also recorded: complete protection
germination or pathogenicity of uredospores collected from treated plants (Uromyces phaseoli; plants treated with low concentrations): no decrease in germination or pathogenicity
delay of uredial appearance (Uromyces phaseoli; postinoculation exposure, lower concentrations, dose-dependent): 2 to 6 days
Lesions per cm^2 (Uromyces phaseoli; [8]): 40 ± 5 per cm^2
Lesions per leaf (Uromyces phaseoli; [8]): 1888 ± 249 per leaf
Lesions per cm^2 (Uromyces phaseoli; [9]): 28 ± 2 per cm^2
Lesions per leaf (Uromyces phaseoli; [9]): 1526 ± 160 per leaf
Lesions per cm^2 (Uromyces phaseoli; [10]): 17 ± 2 per cm^2
Lesions per leaf (Uromyces phaseoli; [10]): 1026 ± 131 per leaf
Lesions per cm^2 (Uromyces phaseoli; [11]): 12 ± 1 per cm^2
Lesions per leaf (Uromyces phaseoli; [11]): 669 ± 96 per leaf
Lesions per cm^2 (Uromyces phaseoli; [12]): 5 ± 1 per cm^2
Lesions per leaf (Uromyces phaseoli; [12]): 221 ± 39 per leaf
Lesions per cm^2 (Uromyces phaseoli; [13]): 2 ± 1 per cm^2
Lesions per leaf (Uromyces phaseoli; [13]): 73 ± 4 per leaf
Lesions per cm^2 (Uromyces phaseoli; [14]): 0 per cm^2
Lesions per leaf (Uromyces phaseoli; [14]): 0 per leaf
Lesions per cm^2 (Uromyces phaseoli; [15]): 0 per cm^2
Lesions per leaf (Uromyces phaseoli; [15]): 0 per leaf
Lesions per cm^2 (Uromyces phaseoli; [16]): 0 per cm^2
Lesions per leaf (Uromyces phaseoli; [16]): 0 per leaf
Lesions per cm^2 (Uromyces phaseoli; [17]): 47 ± 6 per cm^2
Lesions per leaf (Uromyces phaseoli; [17]): 2677 ± 397 per leaf
Lesions per cm^2 (Uromyces phaseoli; [18]): 34 ± 1 per cm^2
Lesions per leaf (Uromyces phaseoli; [18]): 2071 ± 103 per leaf
Lesions per cm^2 (Uromyces phaseoli; [19]): 29 ± 4 per cm^2
Lesions per leaf (Uromyces phaseoli; [19]): 1712 ± 375 per leaf
Lesions per cm^2 (Uromyces phaseoli; [20]): 19 ± 2 per cm^2
Lesions per leaf (Uromyces phaseoli; [20]): 1177 ± 159 per leaf
Lesions per cm^2 (Uromyces phaseoli; [21]): 14 ± 2 per cm^2
Lesions per leaf (Uromyces phaseoli; [21]): 659 ± 104 per leaf
Lesions per cm^2 (Uromyces phaseoli; [22]): 2 ± 1 per cm^2
Lesions per leaf (Uromyces phaseoli; [22]): 85 ± 20 per leaf
Lesions per cm^2 (Uromyces phaseoli; [23]): 0 per cm^2
Lesions per leaf (Uromyces phaseoli; [23]): 0 per leaf
Lesions per cm^2 (Uromyces phaseoli; [24]): 0 per cm^2
Lesions per leaf (Uromyces phaseoli; [24]): 0 per leaf
Lesions per cm^2 (Uromyces phaseoli; [25]): 0 per cm^2
Lesions per leaf (Uromyces phaseoli; [25]): 0 per leaf
appearance, growth and development of sprayed bean plants ([1]; all concentrations, as high as 5 mM): looked healthy, exhibiting no malformation or reduction in growth rate; also recorded: no apparent effect on growth and development of the plant
growth of the bean plants ([1]; sprays 0.01, 0.1 and 1.0 mM): no effect
minimal effective concentration (Verticillium dahliae [2]; 192 h, 8 days, read-out: concentration reducing radial (mycelial) growth): ≥ 5 µM
minimal effective concentration (Verticillium dahliae [2]; read-out: concentration inhibiting pigment synthesis): ≥ 500 µM
effect of 1 mM putrescine on DFMO-induced growth inhibition (Verticillium dahliae [2]; putrescine added to culture medium): reversed
symptoms of Verticillium wilt compared to controls (Verticillium dahliae [3]; 2.5 mM and 10 mM, 24 hours after inoculation): suppressed symptoms
most effective time for application (Verticillium dahliae [3]; 5 mM DFMO, symptoms 21 days after inoculation): 24-48 hours post-inoculation
delay of onset of symptom expression (Verticillium dahliae [3]; increasing concentration from 2.5 to 10 mM): up to 7 days
wilt symptoms (Verticillium dahliae [3]; spores applied to the soil, DFMO applied to the leaves): greatly suppressed
% control ([4]; 0.01 mM): 45% and 60%
Uredia/plant ([4]; 0.01 mM): 44 Uredia/plant and 32 Uredia/plant
% control ([4]; 0.025 mM): 51% and 66%
Uredia/plant ([4]; 0.025 mM): 39 Uredia/plant and 27 Uredia/plant
% control ([4]; 0.13 mM): 55% and 90%
% control ([4]; 0.16 mM): 52% and 92%
% control ([4]; 0.20 mM): 65% and 95%
% control ([4]; 1.00 mM): 72% and 100%
% control ([4]; in vivo): 52% and 82%
Percent control ([5]; 0.01 mM): 50.7% and 50%
Percent control ([5]; 0.025 mM): 63.2%
Percent control ([5]; 0.065 mM): 65.5%
Percent control ([5]; 0.10 mM): 71.0%
Percent control ([5]; 0.13 mM): 67.9%
Percent control ([5]; 0.16 mM): 77.3%
Percent control (Podosphaera leucotricha): 48.6%
Differentiation % (bean rust uredospores; 0.1 mM): 46%
Germination % (bean rust uredospores; 0.1 mM): 32%
Differentiation % (bean rust uredospores; 0.5 mM): 35%
Germination % (bean rust uredospores; 0.5 mM): 32%
Differentiation % (bean rust uredospores; 1.0 mM): 30%
Germination % (bean rust uredospores; 1.0 mM): 32%
Differentiation % (bean rust uredospores; 5.0 mM): 19%
Germination % (bean rust uredospores; 5.0 mM): 22%
inhibition at 100 µM (bean rust uredospores; 0.1 mM, read-out: Differentiation % Inhibiton): 22%
inhibition at 100 µM (bean rust uredospores; 0.1 mM, read-out: Germination % Inhibition): 24%
inhibition at 500 µM (bean rust uredospores; 0.5 mM, read-out: Differentiation % Inhibiton): 41%
inhibition at 500 µM (bean rust uredospores; 0.5 mM, read-out: Germination % Inhibition): 24%
inhibition at 1000 µM (bean rust uredospores; 1.0 mM, read-out: Differentiation % Inhibiton): 49%
inhibition at 1000 µM (bean rust uredospores; 1.0 mM, read-out: Germination % Inhibition): 24%
inhibition at 5000 µM (bean rust uredospores; 5.0 mM, read-out: Differentiation % Inhibiton): 68%
inhibition at 5000 µM (bean rust uredospores; 5.0 mM, read-out: Germination % Inhibition): 48%
Percent control (Erysiphe polygoni; 5 mM): 45%
Percent control (Erysiphe polygoni; 10 mM): 52% and ~50%
mycelial growth in vitro [6]: inhibited mycelial growth
% control (Erysiphe graminis; post-inoculation, 0.01 mM): 19%
Colonies/plant (Erysiphe graminis; post-inoculation, 0.01 mM): 30 Colonies/plant
% control (Erysiphe graminis; post-inoculation, 0.025 mM): 30%
Colonies/plant (Erysiphe graminis; post-inoculation, 0.025 mM): 26 Colonies/plant
% control (Erysiphe graminis; post-inoculation, 0.065 mM): 46%
Colonies/plant (Erysiphe graminis; post-inoculation, 0.065 mM): 20 Colonies/plant
% control (Erysiphe graminis; post-inoculation, 0.10 mM): 68%
Colonies/plant (Erysiphe graminis; post-inoculation, 0.10 mM): 12 Colonies/plant
% control (Erysiphe graminis; post-inoculation, 0.20 mM): 68%
Colonies/plant (Erysiphe graminis; post-inoculation, 0.20 mM): 12 Colonies/plant
% control (Erysiphe graminis; post-inoculation, 1.00 mM): 76%
Colonies/plant (Erysiphe graminis; post-inoculation, 1.00 mM): 9 Colonies/plant
% control (Erysiphe graminis; post-inoculation, 5.00 mM): 89%
Colonies/plant (Erysiphe graminis; post-inoculation, 5.00 mM): 4 Colonies/plant
% control (Erysiphe graminis; pre-inoculation, 0.01 mM): 41%
Colonies/plant (Erysiphe graminis; pre-inoculation, 0.01 mM): 22 Colonies/plant
% control (Erysiphe graminis; pre-inoculation, 0.025 mM): 35%
Colonies/plant (Erysiphe graminis; pre-inoculation, 0.025 mM): 24 Colonies/plant
% control (Erysiphe graminis; pre-inoculation, 0.065 mM): 46%
Colonies/plant (Erysiphe graminis; pre-inoculation, 0.065 mM): 20 Colonies/plant
% control (Erysiphe graminis; pre-inoculation, 0.10 mM): 51%
Colonies/plant (Erysiphe graminis; pre-inoculation, 0.10 mM): 18 Colonies/plant
% control (Erysiphe graminis; pre-inoculation, 0.20 mM): 46%
Colonies/plant (Erysiphe graminis; pre-inoculation, 0.20 mM): 20 Colonies/plant
% control (Erysiphe graminis; pre-inoculation, 1.00 mM): 66%
Colonies/plant (Erysiphe graminis; pre-inoculation, 1.00 mM): 13 Colonies/plant
% control (Erysiphe graminis; pre-inoculation, 5.00 mM): 95%
Colonies/plant (Erysiphe graminis; pre-inoculation, 5.00 mM): 2 Colonies/plant
Lesions per plant ([7]; 1.0 mM): 69 per plant
Percent control ([7]; 1.0 mM): 14%
Lesions per plant ([7]; 5.0 mM): 69 per plant
Percent control ([7]; 5.0 mM): 14%
Lesions per plant ([7]; 10.0 mM): 70 per plant
Percent control ([7]; 10.0 mM): 14%
